Data taken from US20260022142A1, “MACROCYCLIC IMMUNOMODULATORS” (Bristol-Myers Squibb Company, priority 2022, published 2026).
pIC50: −log10 of the molar value. Numbered stars: 1 amine (or outer) side, 2 acyl side, 3 side chain; on linkers, the order of the positions; unused ones are H or OH. Bridge positions count the residues as written; N and C are the ends. Square brackets hold non-standard residues; d marks the D form. Peptide text beside a SMILES is read from it. * marks the point of attachment. ξ: configuration not given here. Bip = N[C@@H](Cc1ccc(-c2ccccc2)cc1)C(=O)O; Phe(3-Me) = Cc1cccc(C[C@H](N)C(=O)O)c1; X19 = O=C([C@@H]1CC(O)CN1[*:1])[*:2]; hArg = N=C(N)NCCCC[C@H](N)C(=O)O; 3Thi = N[C@@H](Cc1ccsc1)C(=O)O; Cha = N[C@@H](CC1CCCCC1)C(=O)O; Thr(3ξ) = CC(O)[C@H](N)C(=O)O; Carboxymethyl = O=C(O)C*; Orn = NCCC[C@H](N)C(=O)O; Aun = NCCCCCCCCCCC(=O)O; Dab = NCC[C@H](N)C(=O)O; Dap = NC[C@H](N)C(=O)O; AEEA = NCCOCCOCC(=O)O

Target: T1, PD-1/PD-L1 interaction (PE-labeled human PD-L1-Ig binding to Jurkat cell line over-expressing human PD-1) (Homo sapiens, UniProt Q15116)
T1 construct: expressed in transfected cells; host or cells: Jurkat
T1 sequence (Q15116 25-288): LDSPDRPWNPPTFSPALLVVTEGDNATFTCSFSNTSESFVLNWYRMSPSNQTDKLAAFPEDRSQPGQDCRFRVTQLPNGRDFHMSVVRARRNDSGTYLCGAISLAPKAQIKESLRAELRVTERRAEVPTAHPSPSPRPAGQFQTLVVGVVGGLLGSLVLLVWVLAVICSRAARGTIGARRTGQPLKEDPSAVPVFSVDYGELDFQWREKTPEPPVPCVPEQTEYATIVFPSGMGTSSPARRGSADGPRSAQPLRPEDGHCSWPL
Assay: Jurkat-PD-1 Cell Binding High-Content Screening Assay (CBA)
Format: cell-based
Conditions: Jurkat cell line over-expressing human PD-1; PE-labeled PD-L1-Ig 20 nM final; read-out: Jurkat hPD1-PDL1 IC50
In short: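 Binding of fluorescent PD-L1-Ig (phycoerythrin on Ig tag, 20 nM final, 1 h) measured by high-content imaging of fixed, Hoechst-counterstained Jurkat-hPD-1 cells. Compound added 2 h at 37° C beforehand, in DMEM with 10% fetal calf serum.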

SMILES	pIC50
CC(C)C[C@H]1NC(=O)[C@H](CN)NC(=O)[C@H](C(C)C)NC(=O)[C@H](Cc2ccc(-c3ccccc3)cc2)NC(=O)[C@H](C(C)C)NC(=O)[C@H](Cc2c[nH]c3ccccc23)NC(=O)[C@H](CC(=O)O)NC(=O)[C@H](Cc2ccc(OCC(=O)O)cc2)NC(=O)[C@H](CCCCNC(=N)N)NC(=O)CSC[C@@H](C(=O)NCCOCCOCC(=O)NCCCCCCCCCCC(=O)O)NC(=O)[C@H](CCCCN)NC(=O)[C@H](C(C)C)NC(=O)[C@H](CC2CCCCC2)NC(=O)[C@H](CCN)NC1=O [Compound 3266] ({CH2CO}-[hArg]Y(Carboxymethyl)DWV[Bip]V[Dap][dL][Dab][Cha]VKC[AEEA][Aun]-OH; thioether N-14)	8.04
CC(C)C[C@H]1NC(=O)[C@H](CCCN)NC(=O)[C@H](C(C)C)NC(=O)[C@H](Cc2ccc(-c3ccccc3)cc2)NC(=O)[C@H](C(C)C)NC(=O)[C@H](Cc2c[nH]c3ccccc23)NC(=O)[C@H](CC(=O)O)NC(=O)[C@H](Cc2ccc(OCC(=O)O)cc2)NC(=O)[C@H](CCCCNC(=N)N)NC(=O)CSC[C@@H](C(=O)N[C@@H](CCN)C(=O)NCCCCCCCCCCC(=O)O)NC(=O)[C@H](C(C)O)NC(=O)[C@H](C(C)C)NC(=O)[C@H](CC2CCCCC2)NC(=O)[C@H](CCN)NC1=O (stereo partly drawn) [Compound 3267] ({CH2CO}-[hArg]Y(Carboxymethyl)DWV[Bip]V[Orn][dL][Dab][Cha]V[Thr(3ξ)]C[Dab][Aun]-OH; thioether N-14)	7.79
Cc1cccc(C[C@@H]2NC(=O)[C@H](CC(=O)O)NC(=O)[C@H](Cc3ccc(OCC(=O)O)cc3)NC(=O)[C@H](CCCCNC(=N)N)NC(=O)CSC[C@@H](C(=O)N[C@@H](CCCN)C(=O)N[C@@H](CO)C(=O)NCCCCCCCCCCC(=O)O)NC(=O)[C@H](C(C)O)NC(=O)[C@H](C(C)C)NC(=O)[C@H](CC3CCCCC3)NC(=O)[C@H](CCN)NC(=O)[C@@H](CC(C)C)NC(=O)[C@H](CCCN)NC(=O)[C@H](C(C)C)NC(=O)[C@H](Cc3ccc(-c4ccccc4)cc3)NC(=O)[C@H](C(C)C)NC2=O)c1 (stereo partly drawn) [Compound 3268] ({CH2CO}-[hArg]Y(Carboxymethyl)D[Phe(3-Me)]V[Bip]V[Orn][dL][Dab][Cha]V[Thr(3ξ)]C[Orn]S[Aun]-OH; thioether N-14)	8.10
CC(C)C[C@H]1NC(=O)[C@H](CCCN)NC(=O)[C@H](C(C)C)NC(=O)[C@H](Cc2ccc(-c3ccccc3)cc2)NC(=O)[C@H](C(C)C)NC(=O)[C@H](Cc2c[nH]c3ccccc23)NC(=O)[C@H](CC(=O)O)NC(=O)[C@H](Cc2c[nH]cn2)NC(=O)[C@H](CCCCNC(=N)N)NC(=O)CSC[C@@H](C(=O)N[C@@H](CCN)C(=O)NCCCCCCCCCCC(=O)O)NC(=O)[C@H](CCN)NC(=O)[C@H](C(C)C)NC(=O)[C@H](CC2CCCCC2)NC(=O)[C@H](CCN)NC1=O [Compound 3269] ({CH2CO}-[hArg]HDWV[Bip]V[Orn][dL][Dab][Cha]V[Dab]C[Dab][Aun]-OH; thioether N-14)	7.18
CC(C)C[C@H]1NC(=O)[C@H](CCCN)NC(=O)[C@H](C(C)C)NC(=O)[C@H](Cc2ccc(-c3ccccc3)cc2)NC(=O)[C@H](C(C)C)NC(=O)[C@H](Cc2c[nH]c3ccccc23)NC(=O)[C@H](CC(=O)O)NC(=O)[C@H](Cc2c[nH]cn2)NC(=O)[C@H](CCCCNC(=N)N)NC(=O)CSC[C@@H](C(=O)N[C@@H](CCN)C(=O)NCCCCCCCCCCC(=O)O)NC(=O)[C@H](CCCCN)NC(=O)[C@H](C(C)C)NC(=O)[C@H](CC2CCCCC2)NC(=O)[C@H](CCN)NC1=O [Compound 3270] ({CH2CO}-[hArg]HDWV[Bip]V[Orn][dL][Dab][Cha]VKC[Dab][Aun]-OH; thioether N-14)	7.49
CC(C)C[C@H]1NC(=O)[C@H](CCCN)NC(=O)[C@H](C(C)C)NC(=O)[C@H](Cc2ccc(-c3ccccc3)cc2)NC(=O)[C@H](C(C)C)NC(=O)[C@H](Cc2c[nH]c3ccccc23)NC(=O)[C@H](CC(=O)O)NC(=O)[C@H](Cc2c[nH]cn2)NC(=O)[C@H](CCCCNC(=N)N)NC(=O)CSC[C@@H](C(=O)N[C@@H](CCN)C(=O)NCCCCCCCCCCC(=O)O)NC(=O)[C@H](CO)NC(=O)[C@H](C(C)C)NC(=O)[C@H](CC2CCCCC2)NC(=O)[C@H](CCN)NC1=O [Compound 3271] ({CH2CO}-[hArg]HDWV[Bip]V[Orn][dL][Dab][Cha]VSC[Dab][Aun]-OH; thioether N-14)	7.50
CC(C)C[C@H]1NC(=O)[C@H](CCCN)NC(=O)[C@H](C(C)C)NC(=O)[C@H](Cc2ccc(-c3ccccc3)cc2)NC(=O)[C@H](C(C)C)NC(=O)[C@H](Cc2c[nH]c3ccccc23)NC(=O)[C@H](CC(=O)O)NC(=O)[C@H](Cc2c[nH]cn2)NC(=O)[C@H](CCCNC(=N)N)NC(=O)CSC[C@@H](C(=O)N[C@@H](CCN)C(=O)NCCCCCCCCCCC(=O)O)NC(=O)[C@H](CO)NC(=O)[C@H](C(C)C)NC(=O)[C@H](CC2CCCCC2)NC(=O)[C@H](CCN)NC1=O [Compound 3272] ({CH2CO}-RHDWV[Bip]V[Orn][dL][Dab][Cha]VSC[Dab][Aun]-OH; thioether N-14)	7.53
CC(C)C[C@H]1NC(=O)[C@H](CCCN)NC(=O)[C@H](C(C)C)NC(=O)[C@H](Cc2ccc(-c3ccccc3)cc2)NC(=O)[C@H](C(C)C)NC(=O)[C@H](Cc2c[nH]c3ccccc23)NC(=O)[C@H](CC(=O)O)NC(=O)[C@H](Cc2c[nH]cn2)NC(=O)[C@H](CCCCNC(=N)N)NC(=O)CSC[C@@H](C(=O)N[C@@H](CCN)C(=O)NCCCCCCCCCCC(=O)O)NC(=O)[C@H](CCC(N)=O)NC(=O)[C@H](C(C)C)NC(=O)[C@H](CC2CCCCC2)NC(=O)[C@H](CCN)NC1=O [Compound 3273] ({CH2CO}-[hArg]HDWV[Bip]V[Orn][dL][Dab][Cha]VQC[Dab][Aun]-OH; thioether N-14)	7.56
CC(C)C[C@H]1NC(=O)[C@H](CCCN)NC(=O)[C@H](C(C)C)NC(=O)[C@H](Cc2ccc(-c3ccccc3)cc2)NC(=O)[C@H](C(C)C)NC(=O)[C@H](Cc2c[nH]c3ccccc23)NC(=O)[C@H](CC(=O)O)NC(=O)[C@H](Cc2c[nH]cn2)NC(=O)[C@H](CCCCNC(=N)N)NC(=O)CSC[C@@H](C(=O)N[C@@H](CCN)C(=O)NCCCCCCCCCCC(=O)O)NC(=O)[C@@H]2CC(O)CN2C(=O)[C@H](C(C)C)NC(=O)[C@H](CC2CCCCC2)NC(=O)[C@H](CCN)NC1=O (stereo partly drawn) [Compound 3274] ({CH2CO}-[hArg]HDWV[Bip]V[Orn][dL][Dab][Cha]V[X19]C[Dab][Aun]-OH; thioether N-14)	6.39
CC(C)C[C@H]1NC(=O)[C@H](CCCN)NC(=O)[C@H](C(C)C)NC(=O)[C@H](Cc2ccc(-c3ccccc3)cc2)NC(=O)[C@H](C(C)C)NC(=O)[C@H](Cc2c[nH]c3ccccc23)NC(=O)[C@H](CC(=O)O)NC(=O)[C@H](Cc2c[nH]cn2)NC(=O)[C@H](CCCNC(=N)N)NC(=O)CSC[C@@H](C(=O)N[C@@H](CCN)C(=O)NCCCCCCCCCCC(=O)O)NC(=O)[C@@H]2CC(O)CN2C(=O)[C@H](C(C)C)NC(=O)[C@H](CC2CCCCC2)NC(=O)[C@H](CCN)NC1=O (stereo partly drawn) [Compound 3275] ({CH2CO}-RHDWV[Bip]V[Orn][dL][Dab][Cha]V[X19]C[Dab][Aun]-OH; thioether N-14)	6.39
CC(C)C[C@H]1NC(=O)[C@H](CCN)NC(=O)[C@H](C(C)C)NC(=O)[C@H](Cc2ccc(-c3ccccc3)cc2)NC(=O)[C@H](C(C)C)NC(=O)[C@H](Cc2c[nH]c3ccccc23)NC(=O)[C@H](CC(=O)O)NC(=O)[C@H](Cc2ccc(OCC(=O)O)cc2)NC(=O)[C@H](CCCCNC(=N)N)NC(=O)CSC[C@@H](C(=O)N[C@H](CC(N)=O)C(=O)NCCCCCCCCCCC(=O)O)NC(=O)[C@H](CCCN)NC(=O)[C@H](C(C)C)NC(=O)[C@H](CC2CCCCC2)NC(=O)[C@H](CCN)NC1=O [Compound 3277] ({CH2CO}-[hArg]Y(Carboxymethyl)DWV[Bip]V[Dab][dL][Dab][Cha]V[Orn]C[dN][Aun]-OH; thioether N-14)	7.98
CC(C)C[C@H]1NC(=O)[C@H](CCCN)NC(=O)[C@H](C(C)C)NC(=O)[C@H](Cc2ccc(-c3ccccc3)cc2)NC(=O)[C@H](C(C)C)NC(=O)[C@H](Cc2c[nH]c3ccccc23)NC(=O)[C@H](CC(=O)O)NC(=O)[C@H](Cc2ccc(OCC(=O)O)cc2)NC(=O)[C@H](CCCCNC(=N)N)NC(=O)CSC[C@@H](C(=O)N[C@H](CC(N)=O)C(=O)NCCCCCCCCCCC(=O)O)NC(=O)[C@H](CCCN)NC(=O)[C@H](C(C)C)NC(=O)[C@H](CC2CCCCC2)NC(=O)[C@H](CCN)NC1=O [Compound 3278] ({CH2CO}-[hArg]Y(Carboxymethyl)DWV[Bip]V[Orn][dL][Dab][Cha]V[Orn]C[dN][Aun]-OH; thioether N-14)	8.06
CC(C)[C@@H]1NC(=O)[C@H](CC2CCCCC2)NC(=O)[C@H](CCN)NC(=O)[C@@H](C)NC(=O)[C@H](CCN)NC(=O)[C@H](C(C)C)NC(=O)[C@H](Cc2ccc(-c3ccccc3)cc2)NC(=O)[C@H](C(C)C)NC(=O)[C@H](Cc2c[nH]c3ccccc23)NC(=O)[C@H](CC(=O)O)NC(=O)[C@H](Cc2ccc(OCC(=O)O)cc2)NC(=O)[C@H](CCCCNC(=N)N)NC(=O)CSC[C@@H](C(=O)N[C@@H](CCN)C(=O)NCCOCCOCC(=O)NCCCCCCCCCCC(=O)O)NC(=O)[C@H](CCCN)NC1=O [Compound 3279] ({CH2CO}-[hArg]Y(Carboxymethyl)DWV[Bip]V[Dab][dA][Dab][Cha]V[Orn]C[Dab][AEEA][Aun]-OH; thioether N-14)	7.33
CC(C)C[C@H]1NC(=O)[C@H](CCN)NC(=O)[C@H](C(C)C)NC(=O)[C@H](Cc2ccc(-c3ccccc3)cc2)NC(=O)[C@H](C(C)C)NC(=O)[C@H](Cc2c[nH]c3ccccc23)NC(=O)[C@H](CC(=O)O)NC(=O)[C@H](Cc2ccc(OCC(=O)O)cc2)NC(=O)[C@H](Cc2ccsc2)NC(=O)CSC[C@@H](C(=O)NCCOCCOCC(=O)NCCCCCCCCCCC(=O)O)NC(=O)[C@H](C(C)O)NC(=O)[C@H](C(C)C)NC(=O)[C@H](CC2CCCCC2)NC(=O)[C@H](CCN)NC1=O (stereo partly drawn) [Compound 3280] ({CH2CO}-[3Thi]Y(Carboxymethyl)DWV[Bip]V[Dab][dL][Dab][Cha]V[Thr(3ξ)]C[AEEA][Aun]-OH; thioether N-14)	7.37
